Reference: US11654136B2, “Phosphoinositide 3-kinase inhibitor with a zinc binding moiety” (Curis, Inc., priority 2011, dated 2023)

Experiments:
[1] = tested on: marrow lymphocyte progenitor cells; experiment: Effect on hematopoietic cells in bone marrow; type: in vivo, mice; conditions: 100 mg/kg orally for five consecutive days
From the text: Bone marrow was also removed from the mice sacrificed in Example 12. Bone marrow content were collected from the mice long bones and analyzed with flow cytometer. Various markers for progenitor or mature lymphocytes were used.

[2] = tested on: Daudi human Burkitt's lymphoma xenograft; experiment: Comparison with CAL-101 in the Daudi xenograft tumor model; type: in vivo, SCID beige mice; conditions: 100 mg/kg Qd (Mon-Fri), PO; 18 days
Experimental: Female SCID beige mice (CD-1 Beige SCID) at 6-8 weeks of age were housed in ventilated micro-isolator cages in a controlled climate, fed with sterile high-fat diet (Problab-RMH 2000 ad libitum and provided with sterilized water. All housing and supplies for SCID beige mice are disposable, and purchased irradiated from Innovive prior to use. Mice were inspected daily including weekends/holidays by trained animal facility personnel and investigators. All animal procedures were performed under sterile conditions in a biosafety cabinet (for injections) or laminar flow hood (for animal husbandry and non-invasive procedures).
Daudi human Burkitt's lymphoma cells were originally obtained from a human Burkitt's lymphoma patient. […] The implanted mice were monitored for general health and tumor development daily.
Tumors were detectable about two weeks following implantation. Tumor size was measured with a caliper. […]
During each animal study, tumors were measured with calipers, tumor size determined using the above mentioned formula, and tumor size changes in percentage calculated. Mouse body weights were measured with a scale twice per week. […] T/C values were calculated using the following formula: % T/C=100×ΔT/ΔC if ΔT>0. […]
Tumor sizes and body weights were measured again on the last day of the study.

[3] = tested on: p-STAT3 (Y-705) and p-Src; experiment: Western blot in RPMI-8226 myeloma cells; type: cell-based; conditions: 1 μM, 16 h
[4] = Pharmacokinetics in SCID mice bearing Daudi tumors; type: in vivo; conditions: for Area under the Curve / Half-life / Cmax / Tmax: oral gavage; for Area under the Curve / Cmax / Tmax: dose not stated; for Half-life: dose of the table not stated (25, 50 or 100 mg/kg); for Cmax / Tmax: female, mouse
Experimental: Daudi (non-Hodgkin's lymphoma cell line) cells were implanted into female Scid (severe […] immune-deficient) mice.
(§1) At various time points following compound administration, three mice per time point were euthanized with CO2, and blood and tumor tissues were collected. Blood was collected into tubes containing sodium heparin. The plasma was separated via centrifugation. Plasma and tissues were stored at −80° C. for later analysis. A PE Sciex API-3000 LC-MS/MS system (Applied Biosystems, Inc., Foster City, Calif.) was used to analyze compound concentrations in plasma.

[5] = Pharmacokinetics in nude mice bearing H2122 tumors; type: in vivo; conditions: PO 50 mg/kg; for Cmax / bioavailability: mouse
Experimental: as §1, with “Nude mice bearing H2122 (human non-small cell lung cancer cell line) xenograft tumors were used for pharmacokinetics studies. […] At” for “At”, “plasma and tumor tissues.” for “plasma.”

[6] = tested on: HDAC activity (Ac-H3, Ac-Tub, Ac-p53, p53, p21) in H460 cells; experiment: Western blot / in-cell-western of HDAC markers in H460 cells; type: cell-based
Experimental: Cell extracts were prepared in the presence of SDS and 2-mercaptoethanol and resolved in polyacrylamide gels. Proteins were transferred to nitrocellulose filter and blotting was done using standard procedures with blocking solutions (Li-Cor Bioscience) containing the indicated primary antibody. Primary antibodies against p-EGFR, EGFR, p-HER2, HER2, p-HER3, HER3, p-MET, MET, p-bRaf, p-cRaf, pMEK, MEK, p-ERK, ERK and tubulin were purchased from Cell Signaling Technology. Secondary antibody conjugated with IRdye 680, 800CW were used and the signal was detected with Li-Cor Odyssey Imager.
Immunocytochemistry was performed on cells grown in monolayer culture that were treated as indicated in the figure legends and then fixed in 4% (w/v) paraformaldehyde. After washing in 1×PBS, immunostaining was performed in Li-Cor blocking solution containing the indicated primary antibodies and IRDye 680- or 800CW-conjugated secondary antibodies. For in-cell-western, a Li-Cor Odyssey infrared imager was used for detection and quantification of results.
Cells were treated with DMSO alone (vehicle control) or containing test compounds for 1 h before Western blot or in-cell-western was performed.

[7] = Plasma, Daudi tumor-bearing Scid mice
[8] = Plasma, H2122 tumor-bearing nude mice

COc1ccc(-c2nc(N3CCOCC3)c3sc(CN(C)c4ncc(C(=O)NO)cn4)cc3n2)cn1 [Compound 1, N-hydroxy-2-(((2-(6-methoxypyridin-3-yl)-4-morpholinothieno[3,2-d]pyrimidin-6-yl)methyl)(methyl)amino)pyrimidine-5-carboxamide]
Marrow lymphocyte progenitor cells [1]: induced a compensatory increase in marrow lymphocyte progenitor cells | Tumor growth [2]: significantly reduced tumor growth compared to the CAL-101 and control groups | p-STAT3 (Y-705) and p-Src [3]: inhibited p-STAT3 (Y-705) and p-Src | Area under the Curve [4, 7]: 1899.26 ng/mL * hr | Half-life [4, 7]: 7.73 h | Area under the Curve ([4]; Tumor): 3973.56 ng/mL * hr | Half-life ([4]; Tumor): 12.62 h | Cmax ([4]; Tumor): 1040 ng/mL | Tmax ([4]; Tumor): 0.1 h | Cmax [4, 7]: 2290 ng/mL | Tmax [4, 7]: 0.24 h | Distribution between plasma and tumor tissue ([4]; oral 25, 50 and 100 mg/kg): preferentially accumulates in tumor tissue in a dose dependent manner | Plasma exposure versus dose ([4]; oral 25, 50 and 100 mg/kg, Daudi tumor-bearing Scid mice): dose-dependent exposure | Distribution between plasma and tumor tissue [5]: preferentially accumulates in tumor tissue | Area under the Curve [5, 8]: 478 ng/mL * hr | Half-life [5, 8]: 5.9 h | Area under the Curve ([5]; Tumor): 2126 ng/mL * hr | Half-life ([5]; Tumor): 10.1 h | Cmax ([5]; Tumor): 154 ng/mL | bioavailability ([5]; Tumor): 14.8% | Cmax [5, 8]: 186 ng/mL | bioavailability [5, 8]: 7.8% | Levels of acetylated-tubulin, histone 3, p53 and p21 versus dose [6]: increases levels of acetylated-tubulin (FIG. 7B), acetylated histone 3 (FIG. 7C), acetylated p53 (FIG. 7D), and acetylated p21 (FIG. 7E) in a dose-dependent manner | Total p53 and p21 content [6]: upregulates total p53 and p21 content | Levels of acetylated histone 3, tubulin and p53 ([6]; 1 μmon, 1 h): increases the levels of acetylated histone 3 (Ac-H3), tubulin (Ac-Tub), and p53 (Ac-p53)
